According to patent publication US20070060639A1, “Compositions and methods for intranasal delivery of tricyclic cannabinoids” (University of Kentucky, priority 2005, published 2007):
Like-named read-outs stand apart in the source and are kept apart here.

Columns and labels:
[1] = rat; for F: F = (AUCIN × DoseIV)/(AUCIV × DoseIN); for concentration at 0 minutes / concentration at 0.5 minutes / concentration at 5 minutes / concentration at 15 minutes / concentration at 30 minutes / concentration at 60 minutes / concentration at 120 minutes / concentration at 160 minutes / concentration at 240 minutes / concentration at 300 minutes / concentration at 360 minutes / concentration at 420 minutes / concentration at 480 minutes: Mean plasma concentration of THC
[2] = intranasally at 1.14-1.33 mg/kg, rat model, period from 15 to 120 minutes after administration; cited from earlier work
[3] = male, Sprague-Dawley, plasma, inhaled or intranasal, 9.84 mg/kg
[4] = male, Sprague-Dawley, plasma, inhaled or intranasal, 9.91 mg/kg
[5] = male, Sprague-Dawley, plasma, iv, 0.99 mg/kg
[6] = male, Sprague-Dawley, plasma, iv, 1 mg/kg, Intravenous (1 mg/kg), propylene glycol, n = 3, rat
[7] = male, Sprague-Dawley, plasma, other: intranasal, 10 mg/kg, Intranasal (10 mg/kg), 90:10 propylene glycol/ethanol, n = 5, rat
[8] = male, Sprague-Dawley, plasma, other: intranasal, 10 mg/kg, Intranasal (10 mg/kg), propylene glycol, n = 3, rat

`CCCCCc1cc(O)c2c(c1)OC(C)(C)[C@@H]1CCC(C)=C[C@@H]21` [THC, delta-9-tetrahydrocannabinol] showed an F ([1]; Intranasal (IN), 90:10 propylene glycol/ethanol, 9.91 mg/kg) of 0.138, an F ([1]; Intranasal (IN), propylene glycol, 9.84 mg/kg) of 0.136 and an F ([1]; Intravenous (IV), propylene glycol, 0.99 mg/kg) of 1. The AUC [1, 3] was 428 ng·h/mL, the Cmax [1, 3] was 55 ng/mL and the Tmax [1, 3] was 3 h. It also gave an AUC [1, 4] of 434 ng·h/mL, a Cmax [1, 4] of 75 ng/mL and a Tmax [1, 4] of 2 h. The AUC [1, 5] was 314 ng·h/mL, the Cmax [1, 5] was 693 ng/mL and the Tmax [1, 5] was 0.0083 h. It also gave a concentration at 0 minutes [1, 6] of 0 ng/mL, a concentration at 0.5 minutes [1, 6] of 693 ng/mL and a concentration at 5 minutes [1, 6] of 136 ng/mL. It also gave a concentration at 15 minutes [1, 6] of 73 ng/mL, a concentration at 30 minutes [1, 6] of 48 ng/mL and a concentration at 60 minutes [1, 6] of 34 ng/mL. The concentration at 120 minutes [1, 6] was 24 ng/mL, the concentration at 160 minutes [1, 6] was 23 ng/mL and the concentration at 240 minutes [1, 6] was 21 ng/mL. It also gave a concentration at 300 minutes [1, 6] of 18 ng/mL, a concentration at 360 minutes [1, 6] of 22 ng/mL and a concentration at 420 minutes [1, 6] of 25 ng/mL. The concentration at 480 minutes [1, 6] was 12 ng/mL, the bioavailability ([1]; male, Sprague-Dawley, plasma, other: intranasal, 10 mg/kg) was ~14% and the concentration at 0 minutes [1, 7] was 0 ng/mL. It also gave a concentration at 0.5 minutes [1, 7] of 0 ng/mL, a concentration at 5 minutes [1, 7] of 0 ng/mL and a concentration at 15 minutes [1, 7] of 24 ng/mL. The concentration at 30 minutes [1, 7] was 43 ng/mL, the concentration at 60 minutes [1, 7] was 59 ng/mL and the concentration at 120 minutes [1, 7] was 75 ng/mL. The concentration at 160 minutes [1, 7] was 54 ng/mL, the concentration at 240 minutes [1, 7] was 24 ng/mL and the concentration at 300 minutes [1, 7] was 20 ng/mL. For the same compound, the concentration at 360 minutes [1, 7] was 19 ng/mL, the concentration at 420 minutes [1, 7] was 16 ng/mL and the concentration at 480 minutes [1, 7] was 11 ng/mL. For the same compound, the concentration at 0 minutes [1, 8] was 0 ng/mL, the concentration at 0.5 minutes [1, 8] was 0 ng/mL and the concentration at 5 minutes [1, 8] was 0 ng/mL. It also gave a concentration at 15 minutes [1, 8] of 3 ng/mL, a concentration at 30 minutes [1, 8] of 13 ng/mL and a concentration at 60 minutes [1, 8] of 26 ng/mL. For the same compound, the concentration at 120 minutes [1, 8] was 38 ng/mL, the concentration at 160 minutes [1, 8] was 36 ng/mL and the concentration at 240 minutes [1, 8] was 51 ng/mL. For the same compound, the concentration at 300 minutes [1, 8] was 19 ng/mL, the concentration at 360 minutes [1, 8] was 17 ng/mL and the concentration at 420 minutes [1, 8] was 16 ng/mL. For the same compound, the concentration at 480 minutes [1, 8] was 16 ng/mL and the analgesic response [2] was “an analgesic response was observed”.
